Results on 14 molecules are retold here after ChEMBL document CHEMBL1938373, “Structure-based design, synthesis and biological evaluation of N-pyrazole, N'-thiazole urea inhibitors of MAP kinase p38α” (Eur J Med Chem, 2012).

Calls of active or inactive are those of the source. No cut-off for these calls is given here.

Data set [1] in a line: Solubility of the compound. The format is physicochemical.
The target of data set [2] is T1, Mitogen-activated protein kinase 14 (Homo sapiens, UniProt Q16539). Nature of the data set: Inhibition of p38alpha-mediated MK2 phosphorylation in anisomysin-stimulated human HeLa cells at 0.5 to 50 uM after 2 hrs by immunoblot analysis. The format is cell-based. (A western blot detects proteins with antibodies after separation by electrophoresis.)
T1 sequence (Q16539 whole entry): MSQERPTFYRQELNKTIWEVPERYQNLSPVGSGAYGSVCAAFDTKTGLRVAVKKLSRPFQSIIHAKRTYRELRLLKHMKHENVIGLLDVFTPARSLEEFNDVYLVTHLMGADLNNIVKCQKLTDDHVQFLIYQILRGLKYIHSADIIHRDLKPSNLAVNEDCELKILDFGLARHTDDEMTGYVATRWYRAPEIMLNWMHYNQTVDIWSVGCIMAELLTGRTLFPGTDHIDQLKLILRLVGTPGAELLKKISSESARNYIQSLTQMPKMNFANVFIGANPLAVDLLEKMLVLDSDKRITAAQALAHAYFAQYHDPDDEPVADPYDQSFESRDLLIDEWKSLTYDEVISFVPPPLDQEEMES
Data set [3] deals with T1, Mitogen-activated protein kinase 14. Nature of the data set: Inhibition of N-terminus His-tagged human p38alpha expressed in Escherichia coli BL21 DE3 using GST-tagged ATF2 as substrate after 90 mins by HTRF assay. On the technique in general: TR-FRET usually uses a lanthanide donor and a delayed reading to cut background.
Data set [4] shares this target.
Data set [5] has the same target. As to the kind of experiment: Binding affinity to N-terminus His-tagged human p38alpha expressed in Escherichia coli BL21 DE3 at 1 nM to 10 uM after 5 hrs by fluorescence analysis.
Data set [6] has the same target. As to the kind of experiment: Inhibition of p38alpha-mediated MK2 phosphorylation in anisomysin-stimulated human HeLa cells after 2 hrs by immunoblot analysis.

As usually defined, the IC50 is the concentration that inhibits the measured activity by half. A high value points to weaker potency in that assay. As a reminder, the Kd is the free concentration of one partner at which half of the binding sites on the other are occupied at equilibrium, for simple one-to-one binding.

For the molecule `O=C(Nc1ccc(Cl)c(C(F)(F)F)c1)Nc1nc(CCOCc2ccccc2)cs1`, the solubility entry in data set [1] is “Insoluble”.

For the molecule `CC(C)(C)c1cc(NC(=O)Nc2nccs2)n(-c2ccc(CC(=O)O)cc2)n1`, in data set [2], the inhibition entry is “inactive”. Besides, in data set [3], the midpoint of inhibition, the IC50, lay at 135 nM. For the same molecule, the Kd in data set [4] stood at 196 nM.

As for `NC(COCc1ccccc1)c1csc(NC(=O)Nc2ccc(Cl)c(F)c2)n1` (stereo not drawn), the dissociation constant (Kd) in data set [4] worked out at 13400 nM.

In data set [4], `Cc1ccc(-n2nc(C(C)(C)C)cc2NC(=O)Nc2nc(CCOCc3ccc(F)cc3)cs2)cc1` showed an equilibrium dissociation constant (Kd) of 303 nM.

With `O=C(O)Cc1ccc(-n2nc(C3CCCC3)cc2NC(=O)Nc2nc(CCOCc3ccccc3)cs2)cc1`, binding in data set [4] was put at a Kd of 901 nM.

For the molecule `Cc1ccc(-n2nc(C(C)(C)C)cc2NC(=O)Nc2nccs2)cc1`, in data set [4], the Kd was found to be 990 nM.

Consider `O=C(Nc1nc(CCOCc2ccccc2)cs1)c1cc(F)cc(N2CCOCC2)c1`, for which, in data set [5], the outcome was inactive.

As for `CCOC(=O)Cc1ccc(-n2nc(C(C)(C)C)cc2NC(=O)Nc2nccs2)cc1`, the IC50 in data set [6] was determined as 6000 nM; in data set [3] it was 639 nM. Moreover, the Kd in data set [4] was 675 nM.

As to `O=C(O)Cc1cccc(-n2nc(C3CC3)cc2NC(=O)Nc2nc(CCOCc3ccccc3)cs2)c1`, the Kd in data set [4] came to 14700 nM.

In turn, `CC(C)(C)c1cc(NC(=O)Nc2nc(CCOCc3ccccc3)cs2)n(-c2ccc(CC(=O)O)cc2)n1` yielded a Kd in data set [4] of 287 nM.

`O=C(O)Cc1cccc(-n2nc(C3CCCC3)cc2NC(=O)Nc2nc(CCOCc3ccccc3)cs2)c1`: binding in data set [4] was put at a Kd of 580 nM.

Consider `Cc1ccc(-n2nc(C(C)(C)C)cc2NC(=O)Nc2nc(CCOCc3ccccc3)cs2)cc1`, for which the dissociation constant Kd in data set [4] is 382 nM.

In data set [4], `Cc1ccc(-n2nc(C(C)(C)C)cc2NC(=O)Nc2nc(CCOCc3ccncc3)cs2)cc1` came in with a dissociation constant Kd of 586 nM.

`CC(C)(C)c1cc(NC(=O)Nc2nc(CCOCc3ccccc3)cs2)n(-c2cccc(CC(=O)O)c2)n1` gave a Kd in data set [4] of 920 nM.
